For one data set, the system named is H2170. Kind of data set: cell viability of H2170 cells, 1 and 10 uM. The settings on record: Homo sapiens, NCI-H2170. Format: cell-based.
A further data set deals with SW900. Description: cell viability of SW900 cells, 1 and 10 uM. The settings on record: Homo sapiens. Format: cell-based.
Another data set concerns A549. Kind of data set: cell viability of A549 cells, 1 and 10 uM. Format: cell-based. The settings on record: Homo sapiens.
The test system of another data set is H520. Description: cell viability of H520 cells, 1 and 10 uM. Format: cell-based. The settings on record: Homo sapiens, NCI-H520.
A further data set has as its system NCI-1703. Description: cell viability of NCI-1703 cells, 1 and 10 uM of each erlotinib derivative, and IC50. Format: cell-based. The settings on record: Homo sapiens.
For the next data set, the system named is H358. Kind of data set: cell viability of H358 cells, 1 and 10 uM. Format: cell-based. The settings on record: Homo sapiens, NCI-H358.
Another data set deals with T1, SET-PP2Ac binding (Homo sapiens, UniProt Q01105).
T1 construct: His; purchased Genway (SET-His); Abnova (PP2Ac-GST) GWB-ATG319; H00005515
Description: disruption of SET-PP2Ac binding (surface plasmon resonance, co-IP). On the procedure: Binding affinities of full-length SET and truncated SET to PP2Ac and the effect of the erlotinib derivatives of the present invention on disrupting SET and PP2Ac were analyzed. PP2Ac-GST recombinant protein was bound in the CMS chip pre-coated with GST-capture antibodies. Sensorgrams were generated by injecting several concentrations of the erlotinib derivatives of the present invention mixed with fixed-concentration of SET recombinant protein, or the mixture of different concentration of truncated SET proteins in a fixed-dose EMQA. PP2Ac-GST recombinant protein used for this experiment was purchased from Abnova (H00005515) and SET-His recombinant protein was obtained from Genway (GWB-ATG319).
EMQA reactivates PP2A by disrupting the binding of SET-PP2Ac. To validate the role of SET, the present invention generated Hep3B cells with ectopic expression of myc-tagged SET by transient transfection. […] With a fixed amount of PP2Ac coated on the CM chip, the present invention tested the effects of a fixed-dose of EMQA on interfering different proportions of full-length and truncated forms of SET proteins in SPR system. […] To validate the findings of this ex vivo system, the present invention generated cells with ectopic overexpression of these two truncated forms of Flag-tagged SET proteins by transient transfections.
(SPR reads the build-up and loss of mass on a sensor chip optically.)

Another data set in a line: BA (%), Table 5. The settings on record: in vivo.
In the next data set the test system is NCI-H226. Description: cell viability of NCI-H226 cells, 1 and 10 uM. In kind it is cell-based. The settings on record: Homo sapiens.
The subject of a further data set is PP2A. Description: PP2A phosphatase activity (malachite green-phosphate assay in cell lysate). Format: cell-based. As to the method: The protein phosphatase activity in each cell lysate was determined by measuring the generation of free phosphate from threonine phosphopeptide using the malachite green-phosphate complex assay as described by the manufacturer (Upstate Biotechnology, Lake Placid, N.Y., USA). In brief, HCC cell lysates were first prepared in a low-detergent lysis buffer. […] After incubation for 10 min at 30° C., the malachite dye was added and free phosphate was measured by optical density at 650 nm. In order to avoid variation resulting from differences in the amount of immunoprecipitation protein between samples, the phosphatase activities were normalized to the amounts of PP2A immunoprecipitated, which were detected and quantified by immunoblot analysis for each treatment group.

SMILES strings stand for the structures.

T1 sequence (Q01105 1-277 isoform Q01105-2): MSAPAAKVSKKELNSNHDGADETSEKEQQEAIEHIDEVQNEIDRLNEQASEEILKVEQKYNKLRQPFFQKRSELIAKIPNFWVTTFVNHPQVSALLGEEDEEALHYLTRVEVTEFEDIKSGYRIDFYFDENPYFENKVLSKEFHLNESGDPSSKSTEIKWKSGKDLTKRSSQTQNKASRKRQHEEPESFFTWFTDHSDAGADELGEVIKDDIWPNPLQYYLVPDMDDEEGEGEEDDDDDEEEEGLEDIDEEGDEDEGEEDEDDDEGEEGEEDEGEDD

The term viability denotes a read-out of living cells in per cent, often relative to untreated cells. Broadly, the IC50 is the concentration that gives 50% inhibition. Low readings indicate inhibition by little substance, high ones a need for much substance. As for `C#Cc1cccc(Nc2nc3ccc([N+](=O)[O-])cc3nc2Nc2cccc(C#C)c2)c1` [TD604, N^2,N^3-bis(3-ethynylphenyl)-6-nitroquinoxaline-2,3-diamine], the viability at 1 µM with H2170 (1 uM) stood at 74.7 ± 6.38%; in the data set on SW900 (1 uM) it was 86.1 ± 22.8%; in the data set with A549 (1 uM) it was 117 ± 7.2%; with H520 (1 uM) it was 30.5 ± 13.9%; with NCI-1703 (1 uM), 15.2 ± 0.5%; with H358 (1 uM) it was 115 ± 9%. Further, the viability at 1 µM in the data set with NCI-H226 (1 uM) was determined as 40.3 ± 1.7%. In addition, the viability at 10 µM in the data set on H2170 (10 uM) was 2.06 ± 0.66%; in the data set with SW900 (10 uM) it was 0%; in the data set on A549 (10 uM) it was 132 ± 5.1%; in the data set with H520 (10 uM), 0.99 ± 0.02%; with NCI-1703 (10 uM) it was 12.5 ± 0.3%; in the data set on H358 (10 uM), 116 ± 8.5%. In addition, the viability at 10 µM in the data set on NCI-H226 (10 uM) turned out to be 5.3 ± 0.3%. Further, the IC50 in the data set with NCI-1703 (cell viability) came to 0.6 µM. Besides, the “minimal concentration to disrupt SET-PP2Ac binding” value at SET-PP2Ac binding was 50 to 100 nM. In addition, in “BA (%), Table 5”, the “BA (%)” value is listed as 57%. Moreover, the “minimal concentration for PP2A activation” value in the data set with PP2A is given as under 50 nM.

(Values after US10189795B2, “Aryl amine substituted quinoxaline used as anticancer drugs” (priority 2014, dated 2019).)
